The values that follow come from US5945451A, “Fluorobutenyl(thio)ethers used as pesticides” (Bayer Aktiengesellschaft, priority 1994, dated 1999).

One data set relates to Meloidogyne incognita. The data set can be described thus: Critical concentration test/nematodes. It is filed as in vivo. As to conditions: 20 ppm in soil; lettuce root galls after three weeks. On the procedure:
Critical concentration test/nematodes
Test nematode: Meloidogyne incognita
Solvent: 3 parts by weight of acetone
(§1) Emulsifier: 1 part by weight of alkylaryl polyglycol ether
To produce a suitable preparation of active compound, 1 part by weight of active compound is mixed with the stated amount of solvent, the stated amount of emulsifier is added and the concentrate is diluted with water to the desired concentration.
The preparation of active compound is intimately mixed with soil which is severely infested with the test nematodes. The concentration of the active compound in the preparation is of practically no importance, only the amount of active compound per unit volume of soil, which is given in ppm (=mg/l), being decisive. The treated soil is transferred into pots, lettuce is sown in, and the pots are kept at a greenhouse temperature of 25° C.
After three weeks, the lettuce roots are checked for infestation with nematodes (root galls) and the degree of efficacy of the active compound in % is determined. The degree of efficacy is 100% when infestation is avoided completely and 0% when the infestation level is just as high as in the control plants in untreated, but equally infested, soil.

Another data set relates to Lucilia cuprina larvae. Description: Blowfly larvae test. The format is in vivo. The conditions noted are these: after 24 hours, horse meat, read-out: destruction. On the procedure: Test animals: Lucilia cuprina larvae
Solvent: 35 parts by weight of ethylene glycol monomethyl ether
Emulsifier: 35 parts by weight of nonylphenol polyglycol ether
For the purpose of producing a suitable formulation, 3 parts by weight of the active compound are mixed with 7 parts of the abovementioned mixture of solvent and emulsifier, and the emulsion concentrate thus obtained is diluted with water to the particular concentration desired.
About 20 Lucilia cuprina larvae are introduced into a test tube which contains approx. 1 cm^3 of horse meat and 0.5 ml of the preparation of active compound to be tested. After 24 hours, the efficacy of the preparation of active compound is determined. 100% means that all blowfly larvae have been killed; 0% means that none of the blowfly larvae have been killed.

Data set [1] has as its system tobacco budworm (Heliothis virescens). The data set can be described thus: whole plant or invertebrate. The format is in vivo. The conditions noted are these: 168 h, read-out: destruction. On the procedure: (§2) Solvent: 7 parts by weight of dimethylformamide
as §1
(§3) To produce a suitable preparation of active compound, 1 part by weight of active compound is mixed with the stated amount of solvent and the stated amount of emulsifier, and the concentrate is diluted with water to the desired concentration.
Soya bean shoots (Glycine max) are treated by being dipped into the preparation of active compound of the desired concentration and are infested with tobacco budworm (Heliothis virescens) while the leaves are still moist.
(§4) After the desired period of time, the destruction in % is determined. 100% means that all the caterpillars have been killed; 0% means that none of the caterpillars have been killed.

Data set [2] relates to caterpillars of the diamond-back moth (Plutella maculipennis). Description: Plutella test. It is filed as in vivo. The conditions noted are these: 168 h, after 7 days, dipped cabbage leaves, read-out: destruction. The procedure:
as §2, §1, §3
Cabbage leaves (Brassica oleracea) are treated by being dipped into the preparation of active compound of the desired concentration and are infested with caterpillars of the diamond-back moth (Plutella maculipennis) while the leaves are still moist.
as §4

In data set [3] the test system is mustard beetle larvae (Phaedon cochleariae). The data set can be described thus: Phaedon larvae test. It is filed as in vivo. As to conditions: 168 h, after 7 days, dipped cabbage leaves, read-out: destruction. The procedure: as §2, §1, §3
After the desired period of time, the destruction in % is determined. 100% means that all the beetle larvae have been killed; 0% means that none of the beetle larvae have been killed.

In data set [4] the test system is larvae of the green rice leafhopper (Nephotettix cincticeps). Description: Nephotettix test. It is filed as in vivo. The conditions noted are these: 144 h, read-out: destruction. The procedure:
as §2, §1, §3
Rice seedlings (Oryzae sativa) are treated by being dipped into the preparation of active compound of the desired concentration and are infested with larvae of the green rice leafhopper (Nephotettix cincticeps) while the seedlings are still moist.
After the desired period of time, the destruction in % is determined. 100% means that all the leafhoppers have been killed; 0% means that none of the leafhoppers have been killed.

A short description of data set [5]: log p, octanol/water partition coefficient determined by reversed-phase HPLC. The format is physicochemical. The conditions noted are these: for chromatographic logP: pH not stated; for chromatographic logD: pH 2. The source says:
* log p = Logarithm of the partition coefficient p of the substance
between the solvents octanol and water, determined experimentally by mean

Molecules are shown by their SMILES.

As for `O=C(CSCCC(F)=C(F)F)OCc1ccccc1` [Example I-2], the degree of efficacy with Meloidogyne incognita amounted to 100%.

With `CN(C)C(=O)CSCCC(F)=C(F)F` [Example I-9], the mortality at 1000 ppm in the data set on Lucilia cuprina larvae came out at 100%.

As to `O=C(CSCCC(F)=C(F)F)Nc1ccc(F)cc1` [Example I-10], the mortality at 0.1 % in data set [1] was 85%.

In the data set with Meloidogyne incognita, `O=C(CSCCC(F)=C(F)F)Nc1ccccn1` [Example I-11] returned a degree of efficacy of 100%.

For `CC(C)N(C(=O)CSCCC(F)=C(F)F)c1ccc(Cl)c(Cl)c1` [Example I-13], the mortality at 0.1 % in data set [2] and in data set [3] was 100% throughout.

Regarding `CC(C)N(C(=O)CSCCC(F)=C(F)F)c1cccc(F)c1` [Example I-14], the mortality at 0.1 % in data set [2] and in data set [4] was 100% in each case.

`O=C(O)CNC(=O)CSCCC(F)=C(F)F` [Example I-15]: in the data set on Meloidogyne incognita, the degree of efficacy is 100%.

For `CC(NC(=O)CSCCC(F)=C(F)F)C(=O)O` (stereo not drawn) [Example I-16], in the data set on Meloidogyne incognita, the degree of efficacy is 100%.

Turning to `O=C(CSCCC(F)=C(F)F)NC(Cc1ccccc1)C(=O)O` (stereo not drawn) [Example I-17], in the data set with Meloidogyne incognita, the degree of efficacy is on record as 100%.

For orientation: chromatographic logP means a lipophilicity value derived from retention on a column. With `CC(NC(=O)CSCCC(F)=C(F)F)c1ccccc1` (stereo not drawn) [Example I-18], the chromatographic logP in data set [5] came to 2.77.

For `O=C(CSCCC(F)=C(F)F)NCc1ccc(Cl)cc1` [Example I-19], the chromatographic logP in data set [5] was 2.94.

`COC(=O)CSCCC(F)=C(F)F` [Example I-20] came in with a chromatographic logP in data set [5] of 2.43.

`CC(C)COC(=O)CSCCC(F)=C(F)F` [Example I-21] showed a chromatographic logP in data set [5] of 3.74.

In general, chromatographic logD refers to a lipophilicity value derived from retention on a column. As for `NC(=O)CSCCC(F)=C(F)F` [Example I-22], the chromatographic logD in data set [5] came to 1.22.

Turning to `O=C(CSCCC(F)=C(F)F)NCc1ccccc1` [Example I-23], the chromatographic logD in data set [5] was 2.56.

With `O=C(Nc1ccc(Cl)c(Cl)c1)C(SCCC(F)=C(F)F)c1ccccc1` (stereo not drawn) [Example I-46], in data set [5], the chromatographic logD stood at 4.59.
